Here are results for 23 compounds from patent US6335339B1, “Triazine antiviral compounds” (Scriptgen Pharmaceuticals, Inc., priority 1998, dated 2002).

As usually defined, the IC50 is the concentration that inhibits the measured activity by half.

For assay [1], the system named is HBV εRNA. As to the kind of experiment: εRNA/oligonucleotide hybridization inhibition assay with rRNA competitor. The class given is binding, Hepatitis B virus. As to conditions: for IC50 / HBV + rRNA IC50 (μM): radiolabeled εRNA, 60-fold excess rRNA competitor; for Specificity: ratio RRE+rRNA IC50/εRNA+rRNA IC50, max = inactive in RRE assay. An outline of the steps: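 Inhibition of hybridization between 25 nM [32P]-εRNA and 100 nM biotinylated complementary oligonucleotide (50 mM Tris-HCl pH 7.5, 200 mM KCl, 5 mM MgCl2, 60 min, 25 °C), hybrids captured by streptavidin filter and counted. Titrations 0.1-200 μM with 60-fold excess rRNA; specificity = RRE+rRNA IC50/εRNA+rRNA IC50.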

Assay [2] has as its system HIV derived RRE RNA. The assay can be described thus: heterologous hybridization inhibition assay with RRE RNA. Format: binding. Particulars: radiolabeled RRE RNA, rRNA competitor.

Regarding `C(=Cc1ccccc1)C=NNc1nc(Nc2ccccc2)nc(N2CCCC2)n1` [Compound 213], in assay [1], the IC50 is 15.6 µM and the Specificity is listed as 33.3. In addition, in assay [2], the IC50 stood at 519 µM.
`CCN(CC)c1nc(NN=Cc2ccc(Cl)c([N+](=O)[O-])c2)nc(Nc2cc(C)ccc2C)n1` [Compound 214]: in assay [1], the IC50 was found to be 42.6 µM and the Specificity result is on record as “max”. The “RRE + rRNA IC50 (μM)” value in assay [2] was “inactive”.
`Clc1ccc(C=NNc2nc(Nc3ccccc3)nc(N3CCCC3)n2)cc1` [Compound 218]: the IC50 is 4.8 µM in assay [1] and 57.8 µM in assay [2]. In assay [1], the Specificity was 12.0.
As for `Cc1ccc(Nc2nc(NCc3ccccc3)nc(NN=Cc3cc(Br)cc(Br)c3O)n2)cc1C` [Compound 219], the “HBV + rRNA IC50 (μM)” value in assay [1] is “inactive”. The “RRE + rRNA IC50 (μM)” value in assay [2] is “inactive”.
As to `O=C(NNc1nc(Nc2ccccc2)nc(Nc2cccc(C(F)(F)F)c2)n1)c1cccc(Br)c1` [Compound 220], in assay [1], the IC50 stood at 27.6 µM and the Specificity amounted to 33.3. Further, in assay [2], the IC50 stood at 918 µM.
As for `CN(C)c1nc(NCc2ccccc2)nc(NN=Cc2ccc(Cl)cc2Cl)n1` [Compound 224], in assay [1], the IC50 amounted to 60.1 µM and the Specificity result is given as “max”. Further, the “RRE + rRNA IC50 (μM)” value in assay [2] was “inactive”.
With `COc1ccc(Nc2nc(NCc3cccc([N+](=O)[O-])c3)nc(NCc3cc(F)ccc3F)n2)cc1OC` [Compound 225], in assay [1], the IC50 is 193 µM and the Specificity entry was “max”. The “RRE + rRNA IC50 (μM)” value in assay [2] is “inactive”.
Turning to `Cc1ccc(Nc2nc(NCc3ccccc3)nc(NN=Cc3cc(Cl)ccc3O)n2)cc1C` [Compound 226], in assay [1], the IC50 is 84.4 µM and the Specificity is on record as 5.0. For the same compound, the IC50 in assay [2] amounted to 422 µM.
As to `CC(=NNc1nc(Nc2ccccc2)nc(N2CCCC2)n1)c1ccc(F)cc1` [Compound 227], in assay [1], the IC50 came to 12.8 µM and the Specificity result is “max”. In assay [2], the “RRE + rRNA IC50 (μM)” value was “inactive”.
`Cc1ccc(Nc2nc(NCc3ccccc3)nc(NN=Cc3ccccc3F)n2)cc1C` [Compound 228]: in assay [1], the IC50 is 79.3 µM and the Specificity entry is recorded as “max”. Besides, the “RRE + rRNA IC50 (μM)” value in assay [2] is “inactive”.
For `Cc1ccc(Nc2nc(NN=Cc3cccc([N+](=O)[O-])c3)nc(Nc3ccccc3)n2)c(C)c1` [Compound 229], in assay [1], the IC50 came to 4.4 µM and the Specificity result is “max”. Further, the “RRE + rRNA IC50 (μM)” value in assay [2] was “inactive”.
`Brc1ccc(Nc2nc(NCc3ccccc3)nc(Nc3ccc(Br)cc3)n2)cc1` [Compound 230]: in assay [1], the IC50 stood at 20.9 µM and the Specificity result is given as “max”. Moreover, the “RRE + rRNA IC50 (μM)” value in assay [2] is “inactive”.
The matching figures for `O=[N+]([O-])c1ccc(Nc2nc(NCc3ccccc3)nc(N3CCOCC3)n2)cc1` [Compound 231]: 195 µM, “max” and “inactive”.
For the compound `Oc1ccc(Br)cc1C=NNc1nc(Nc2cccc(Br)c2)nc(N2CCOCC2)n1` [Compound 232], in assay [1], the IC50 is 45.5 µM and the Specificity entry is “max”. The “RRE + rRNA IC50 (μM)” value in assay [2] was “inactive”.
With `CNc1nc(NN=Cc2cc(Cl)ccc2O)nc(Nc2ccccc2)n1` [Compound 245], in assay [1], the IC50 amounted to 8.1 µM and the Specificity result is listed as “max”. Also, the “RRE + rRNA IC50 (μM)” value in assay [2] is “inactive”.
`Oc1ccc(Br)cc1C=NNc1nc(Nc2cccc(C(F)(F)F)c2)nc(N2CCOCC2)n1` [Compound 246]: in assay [1], the IC50 came out at 5.6 µM and the Specificity entry is given as “max”. Moreover, the “RRE + rRNA IC50 (μM)” value in assay [2] is “inactive”.
For `FC(F)(F)c1cccc(Nc2nc(Nc3cccc(Cl)c3)nc(N3CCOCC3)n2)c1` [Compound 247], in assay [1], the IC50 turned out to be 6.7 µM and the Specificity result is on record as “max”. Further, the “RRE + rRNA IC50 (μM)” value in assay [2] was “inactive”.
On to `Cc1ccc(Nc2nc(NCc3cc(F)ccc3F)nc(Nc3ccc([N+](=O)[O-])cc3)n2)cc1C` [Compound 248], for which the “HBV + rRNA IC50 (μM)” value in assay [1] was “inactive”. Further, the “RRE + rRNA IC50 (μM)” value in assay [2] was “inactive”.
Turning to `Cc1ccc(Nc2nc(NN=Cc3ccc(Cl)cc3)nc(N3CCOCC3)n2)cc1` [Compound 249], in assay [1], the IC50 stood at 47.2 µM and the Specificity entry is “max”. Moreover, the “RRE + rRNA IC50 (μM)” value in assay [2] is “inactive”.
Regarding `Cc1ccc(Nc2nc(NNC(=O)c3ccccc3O)nc(Oc3ccc([N+](=O)[O-])cc3)n2)cc1C` [Compound 250], the “HBV + rRNA IC50 (μM)” value in assay [1] is “inactive”. For the same compound, in assay [2], the “RRE + rRNA IC50 (μM)” value is “inactive”.
`Cc1ccc(Nc2nc(Nc3cccc(C(F)(F)F)c3)nc(N3CCOCC3)n2)cc1C` [Compound 251]: in assay [1], the IC50 was 45 µM and the Specificity entry is “max”. The “RRE + rRNA IC50 (μM)” value in assay [2] is “inactive”.
For the compound `COc1ccc(Nc2nc(NCCc3ccccc3)nc(N(C)C)n2)cc1OC` [Compound 252], the “HBV + rRNA IC50 (μM)” value in assay [1] is “inactive”. In assay [2], the “RRE + rRNA IC50 (μM)” value is “inactive”.
On to `CNc1nc(NN=Cc2ccccc2C(F)(F)F)nc(Nc2cccc(C(F)(F)F)c2)n1` [Compound 253], for which the IC50 was 11 µM in assay [1] and 659 µM in assay [2]. In assay [1], the Specificity was found to be 59.9.
